# Assay results reported in PubChem BioAssay AID1963863 (Molecular Pharmacology Branch, DTP, NCI, 2024).
# Tested on: 931267-113-T-J1-PDC KRAS spheroid with HUVEC/MSC, viability
# Assay: Anticancer human tumor 931267-113-T-J1-PDC patient-derived colon adenocarcinoma cell line growth inhibition [KRAS2]
# Settings: for viability, T/C: stronger effect = lower value
# In short: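 Combination screen of spheroid viability in tumor-cell co-cultures with endothelial (HUVEC) and mesenchymal stem cell stroma. Each agent was tested in half-log dilutions, topping at clinical Cmax or at 10 microM without a known Cmax.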
# [1] = curve of first compound, second compound 0.1 µM
# [2] = curve of first compound, second compound 0.316 µM
# [3] = curve of first compound, second compound 1 µM
# [4] = curve of first compound, second compound 3.16 µM
# [5] = curve of first compound, second compound 10 µM
# [6] = second compound 0.1 µM, first compound 0.0316 µM
# [7] = second compound 0.1 µM, first compound 0.1 µM
# [8] = second compound 0.1 µM, first compound 0.316 µM
# [9] = second compound 0.1 µM, first compound 1 µM
# [10] = second compound 0.1 µM, first compound 3.16 µM
# [11] = second compound 0.1 µM, first compound 10 µM
# [12] = second compound 0.316 µM, first compound 0.0316 µM
# [13] = second compound 0.316 µM, first compound 0.1 µM
# [14] = second compound 0.316 µM, first compound 0.316 µM
# [15] = second compound 0.316 µM, first compound 1 µM
# [16] = second compound 0.316 µM, first compound 3.16 µM
# [17] = second compound 0.316 µM, first compound 10 µM
# [18] = second compound 1 µM, first compound 0.0316 µM
# [19] = second compound 1 µM, first compound 0.1 µM
# [20] = second compound 1 µM, first compound 0.316 µM
# [21] = second compound 1 µM, first compound 1 µM
# [22] = second compound 1 µM, first compound 3.16 µM
# [23] = second compound 1 µM, first compound 10 µM
# [24] = second compound 3.16 µM, first compound 0.0316 µM
# [25] = second compound 3.16 µM, first compound 0.1 µM
# [26] = second compound 3.16 µM, first compound 0.316 µM
# [27] = second compound 3.16 µM, first compound 1 µM
# [28] = second compound 3.16 µM, first compound 3.16 µM
# [29] = second compound 3.16 µM, first compound 10 µM
# [30] = second compound 10 µM, first compound 0.0316 µM
# [31] = second compound 10 µM, first compound 0.1 µM
# [32] = second compound 10 µM, first compound 0.316 µM
# [33] = second compound 10 µM, first compound 1 µM
# [34] = second compound 10 µM, first compound 3.16 µM
# [35] = second compound 10 µM, first compound 10 µM
# [36] = second compound 0.1 µM, first compound 0.01 µM
# [37] = second compound 0.316 µM, first compound 0.01 µM
# [38] = second compound 1 µM, first compound 0.01 µM
# [39] = second compound 3.16 µM, first compound 0.01 µM
# 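Also: compound exposure lasted 7 days before the readout.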
# 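For viability, T/C in this document: 100% = DMSO vehicle control viability.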
smiles,measurement,setting,value
COc1cc2nccc(Oc3ccc(NC(=O)C4(C(=O)Nc5ccc(F)cc5)CC4)cc3)c2cc1OC + CC1OCC2(CCN(c3cnc(Sc4ccnc(N)c4Cl)c(N)n3)CC2)C1N,IC50,[1],> 10000 nM
same,IC50,[2],2790 nM
same,IC50,[3],3060 nM
same,IC50,[4],4530 nM
same,IC50,[5],2930 nM
same,"viability, T/C",[6],87%
same,"viability, T/C",[7],116%
same,"viability, T/C",[8],102%
same,"viability, T/C",[9],88.8%
same,"viability, T/C",[10],51.4%
same,"viability, T/C",[11],66.6%
same,"viability, T/C",[12],81.9%
same,"viability, T/C",[13],91.9%
same,"viability, T/C",[14],84.9%
same,"viability, T/C",[15],99.5%
same,"viability, T/C",[16],45.1%
same,"viability, T/C",[17],37.4%
same,"viability, T/C",[18],92.8%
same,"viability, T/C",[19],95.8%
same,"viability, T/C",[20],86.3%
same,"viability, T/C",[21],88.2%
same,"viability, T/C",[22],48.1%
same,"viability, T/C",[23],49.5%
same,"viability, T/C",[24],78.6%
same,"viability, T/C",[25],99%
same,"viability, T/C",[26],91.3%
same,"viability, T/C",[27],92.1%
same,"viability, T/C",[28],57.5%
same,"viability, T/C",[29],33.5%
same,"viability, T/C",[30],99.2%
same,"viability, T/C",[31],101%
same,"viability, T/C",[32],93.3%
same,"viability, T/C",[33],86.5%
same,"viability, T/C",[34],47.1%
same,"viability, T/C",[35],30.5%
CC1COCCN1c1cc(-c2ccnn2C)c2ccnc(-c3ccn[nH]3)c2n1 (stereo not drawn) + CNCc1ccccc1-c1csc(C(C)Nc2nc(C)nc3cc(OC)c(OC)cc23)c1,IC50,[1],49.6 nM
same,IC50,[2],46.6 nM
same,IC50,[3],27.8 nM
same,IC50,[4],< 10 nM
same,IC50,[5],< 10 nM
same,"viability, T/C",[36],87.4%
same,"viability, T/C",[6],64.9%
same,"viability, T/C",[7],27.4%
same,"viability, T/C",[8],11.4%
same,"viability, T/C",[9],17.1%
same,"viability, T/C",[10],18%
same,"viability, T/C",[37],80.2%
same,"viability, T/C",[12],64.9%
same,"viability, T/C",[13],20.6%
same,"viability, T/C",[14],14.7%
same,"viability, T/C",[15],16.9%
same,"viability, T/C",[16],15.3%
same,"viability, T/C",[38],58.3%
same,"viability, T/C",[18],48.8%
same,"viability, T/C",[19],19.8%
same,"viability, T/C",[20],7.5%
same,"viability, T/C",[21],10.8%
same,"viability, T/C",[22],6.12%
same,"viability, T/C",[39],0.07%
same,"viability, T/C",[24],0.07%
same,"viability, T/C",[25],0.05%
same,"viability, T/C",[26],0.04%
same,"viability, T/C",[27],0.05%
same,"viability, T/C",[28],0.14%
same,"viability, T/C","second compound 10 µM, first compound 0.01 µM",0.16%
same,"viability, T/C",[30],0.09%
same,"viability, T/C",[31],0.1%
same,"viability, T/C",[32],0.1%
same,"viability, T/C",[33],0.11%
same,"viability, T/C",[34],1.06%
CN(C)C/C=C/C(=O)Nc1cc2c(Nc3ccc(F)c(Cl)c3)ncnc2cc1O[C@H]1CCOC1 + C=CC(=O)N1CCN(c2nc(OCC3CCCN3C)nc3c2CCN(c2cccc4cccc(C)c24)C3)CC1CC#N,IC50,"curve of first compound, second compound 0.0316 µM",> 100 nM
same,IC50,[1],> 100 nM
same,IC50,[2],> 100 nM
same,IC50,[3],> 100 nM
same,IC50,[4],< 0.316 nM
same,"viability, T/C","second compound 0.0316 µM, first compound 0.000316 µM",82.1%
same,"viability, T/C","second compound 0.0316 µM, first compound 0.001 µM",86.9%
same,"viability, T/C","second compound 0.0316 µM, first compound 0.00316 µM",98.2%
same,"viability, T/C","second compound 0.0316 µM, first compound 0.01 µM",68.6%
same,"viability, T/C","second compound 0.0316 µM, first compound 0.0316 µM",78.3%
same,"viability, T/C","second compound 0.0316 µM, first compound 0.1 µM",75.8%
same,"viability, T/C","second compound 0.1 µM, first compound 0.000316 µM",89.2%
same,"viability, T/C","second compound 0.1 µM, first compound 0.001 µM",98%
same,"viability, T/C","second compound 0.1 µM, first compound 0.00316 µM",65.7%
same,"viability, T/C",[36],62.1%
same,"viability, T/C",[6],65.9%
same,"viability, T/C",[7],64.1%
same,"viability, T/C","second compound 0.316 µM, first compound 0.000316 µM",77.6%
same,"viability, T/C","second compound 0.316 µM, first compound 0.001 µM",70.7%
same,"viability, T/C","second compound 0.316 µM, first compound 0.00316 µM",69.3%
same,"viability, T/C",[37],62.2%
same,"viability, T/C",[12],66.2%
same,"viability, T/C",[13],70.7%
same,"viability, T/C","second compound 1 µM, first compound 0.000316 µM",59.1%
same,"viability, T/C","second compound 1 µM, first compound 0.001 µM",72.6%
same,"viability, T/C","second compound 1 µM, first compound 0.00316 µM",70%
same,"viability, T/C",[38],72.1%
same,"viability, T/C",[18],53.1%
same,"viability, T/C",[19],59.6%
same,"viability, T/C","second compound 3.16 µM, first compound 0.000316 µM",0.31%
same,"viability, T/C","second compound 3.16 µM, first compound 0.001 µM",0.19%
same,"viability, T/C","second compound 3.16 µM, first compound 0.00316 µM",0.24%
same,"viability, T/C",[39],0.2%
same,"viability, T/C",[24],0.21%
same,"viability, T/C",[25],0.47%
COc1cc(Nc2ncc3c(n2)-c2ccc(Cl)cc2C(c2c(F)cccc2OC)=NC3)ccc1C(=O)O + CC1OCC2(CCN(c3cnc(Sc4ccnc(N)c4Cl)c(N)n3)CC2)C1N,IC50,[1],> 10000 nM
same,IC50,[2],6420 nM
same,IC50,[3],848 nM
same,IC50,[4],571 nM
same,IC50,[5],799 nM
same,"viability, T/C",[6],69.3%
same,"viability, T/C",[7],75.1%
same,"viability, T/C",[8],58.4%
same,"viability, T/C",[9],58%
same,"viability, T/C",[10],51.7%
same,"viability, T/C",[11],54%
same,"viability, T/C",[12],67.4%
same,"viability, T/C",[13],68.7%
same,"viability, T/C",[14],57.1%
same,"viability, T/C",[15],61.3%
same,"viability, T/C",[16],49%
same,"viability, T/C",[17],49.5%
same,"viability, T/C",[18],62.4%
same,"viability, T/C",[19],52.4%
same,"viability, T/C",[20],54.4%
same,"viability, T/C",[21],51.5%
same,"viability, T/C",[22],41.3%
same,"viability, T/C",[23],31.6%
same,"viability, T/C",[24],53.4%
same,"viability, T/C",[25],64.6%
same,"viability, T/C",[26],56.8%
same,"viability, T/C",[27],42%
same,"viability, T/C",[28],33.3%
same,"viability, T/C",[29],21.6%
same,"viability, T/C",[30],70.2%
same,"viability, T/C",[31],65.4%
same,"viability, T/C",[32],51.1%
same,"viability, T/C",[33],46.8%
same,"viability, T/C",[34],43.3%
same,"viability, T/C",[35],15.8%
Cn1ncnc1[C@H]1c2n[nH]c(=O)c3cc(F)cc(c23)N[C@@H]1c1ccc(F)cc1,"viability, T/C",compound 0.000316 µM,102% [middle of 5 runs]
same,"viability, T/C",compound 0.001 µM,97.8% [middle of 5 runs]
same,"viability, T/C",compound 0.00316 µM,98.9% [middle of 5 runs]
same,"viability, T/C",compound 0.01 µM,88.3% [middle of 5 runs]
same,"viability, T/C",compound 0.0316 µM,94.4% [middle of 5 runs]
same,IC50,curve of compound,> 100 nM
CC(C)NCC(C(=O)N1CCN(c2ncnc3c2C(C)CC3O)CC1)c1ccc(Cl)cc1 (stereo not drawn) + COc1cc2nc(C)nc(NC(C)c3cc(N)cc(C(F)(F)F)c3)c2cc1OC1CCOC1,IC50,[1],> 10000 nM
same,IC50,[2],5270 nM
same,IC50,[3],4360 nM
same,IC50,[4],1620 nM
same,IC50,[5],< 31.6 nM
same,"viability, T/C",[6],87.4%
same,"viability, T/C",[7],105%
same,"viability, T/C",[8],104%
same,"viability, T/C",[9],77.2%
same,"viability, T/C",[10],58.3%
same,"viability, T/C",[11],59.9%
same,"viability, T/C",[12],106%
same,"viability, T/C",[13],91.6%
same,"viability, T/C",[14],83.3%
same,"viability, T/C",[15],76.2%
same,"viability, T/C",[16],56%
same,"viability, T/C",[17],40.4%
same,"viability, T/C",[18],88%
same,"viability, T/C",[19],76.9%
same,"viability, T/C",[20],72.7%
same,"viability, T/C",[21],70.4%
same,"viability, T/C",[22],54%
same,"viability, T/C",[23],37.9%
same,"viability, T/C",[24],78.5%
same,"viability, T/C",[25],76.7%
same,"viability, T/C",[26],67.2%
same,"viability, T/C",[27],54.6%
same,"viability, T/C",[28],42.7%
same,"viability, T/C",[29],20.6%
same,"viability, T/C",[30],0.91%
same,"viability, T/C",[31],1.02%
same,"viability, T/C",[32],0.68%
same,"viability, T/C",[33],0.76%
same,"viability, T/C",[34],0.45%
same,"viability, T/C",[35],0.48%
CC1(C)CCC(CN2CCN(c3ccc(C(=O)NS(=O)(=O)c4ccc(NCC5CCOCC5)c([N+](=O)[O-])c4)c(Oc4cnc5[nH]ccc5c4)c3)CC2)=C(c2ccc(Cl)cc2)C1,"viability, T/C",compound 0.0316 µM,99.5% [middle of 5 runs]
same,"viability, T/C",compound 0.1 µM,89.5% [middle of 5 runs]
same,"viability, T/C",compound 0.316 µM,91.4% [middle of 5 runs]
same,"viability, T/C",compound 1 µM,96.9% [middle of 5 runs]
same,"viability, T/C",compound 3.16 µM,33.6% [middle of 5 runs]
same,"viability, T/C",compound 10 µM,10.7% [middle of 5 runs]
same,IC50,curve of compound,2.34 µM [middle of 5 runs]
